The text below walks through data of ChEMBL document CHEMBL1149699, “Structure-activity relationships of 3,4-dihydro-1H-quinazolin-2-one derivatives as potential CDK5 inhibitors” (Bioorg Med Chem, 2007).

For assay [1], the target named is T1, Cyclin-dependent kinase 5/CDK5 activator 1 (Homo sapiens, UniProt Q00535). Put plainly: Inhibition of human CDK5/p25 by HTRF assay. It counts as protein-complex assay. (In TR-FRET formats the signal depends on donor and acceptor labels being close together.)
Assay [2] addresses T1, Cyclin-dependent kinase 5/CDK5 activator 1. Put plainly: Inhibition of human His-tagged p25/CDK5. It is filed as protein-complex assay.
The target of assay [3] is Mitogen-activated protein kinase 9 (Homo sapiens, UniProt P45984). Nature of the assay: Inhibition of human JNK2.
Assay [4] concerns the target Mitogen-activated protein kinase 14 (Homo sapiens, UniProt Q16539). Nature of the assay: Inhibition of human p38 alpha.
Assay [5] can be described thus: Inhibition of human PKA.
Assay [6] deals with Mitogen-activated protein kinase 3 (Homo sapiens, UniProt P27361). Put plainly: Inhibition of human Erk1.
The nature of assay [7]: Inhibition of human His-tagged cyclin 2/CDK2 by HTRF assay.

SMILES strings stand for the structures.

Sequence of Mitogen-activated protein kinase 9 (P45984 whole entry): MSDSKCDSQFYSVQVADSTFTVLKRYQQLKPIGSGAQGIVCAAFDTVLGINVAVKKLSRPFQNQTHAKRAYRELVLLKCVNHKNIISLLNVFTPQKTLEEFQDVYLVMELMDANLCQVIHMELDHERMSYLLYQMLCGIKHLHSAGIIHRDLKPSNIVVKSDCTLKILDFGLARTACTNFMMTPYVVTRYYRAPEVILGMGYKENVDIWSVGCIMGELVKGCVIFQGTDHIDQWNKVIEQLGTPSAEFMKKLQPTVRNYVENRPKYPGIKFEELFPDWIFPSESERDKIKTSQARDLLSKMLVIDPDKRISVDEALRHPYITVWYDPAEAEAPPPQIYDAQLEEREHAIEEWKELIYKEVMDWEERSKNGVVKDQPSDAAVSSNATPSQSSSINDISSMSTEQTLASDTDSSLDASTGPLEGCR
Sequence of Mitogen-activated protein kinase 3 (P27361 whole entry): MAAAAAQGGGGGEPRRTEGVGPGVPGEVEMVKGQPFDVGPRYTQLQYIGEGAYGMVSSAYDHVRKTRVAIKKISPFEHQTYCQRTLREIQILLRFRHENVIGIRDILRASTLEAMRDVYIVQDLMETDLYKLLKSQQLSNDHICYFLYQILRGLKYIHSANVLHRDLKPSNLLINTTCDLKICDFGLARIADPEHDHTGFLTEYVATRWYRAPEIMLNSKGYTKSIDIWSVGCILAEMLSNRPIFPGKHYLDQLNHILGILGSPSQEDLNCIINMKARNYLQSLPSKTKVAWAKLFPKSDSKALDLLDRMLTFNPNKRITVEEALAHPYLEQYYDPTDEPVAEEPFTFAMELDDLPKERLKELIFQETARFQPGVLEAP
T1 sequence (Q00535 whole entry): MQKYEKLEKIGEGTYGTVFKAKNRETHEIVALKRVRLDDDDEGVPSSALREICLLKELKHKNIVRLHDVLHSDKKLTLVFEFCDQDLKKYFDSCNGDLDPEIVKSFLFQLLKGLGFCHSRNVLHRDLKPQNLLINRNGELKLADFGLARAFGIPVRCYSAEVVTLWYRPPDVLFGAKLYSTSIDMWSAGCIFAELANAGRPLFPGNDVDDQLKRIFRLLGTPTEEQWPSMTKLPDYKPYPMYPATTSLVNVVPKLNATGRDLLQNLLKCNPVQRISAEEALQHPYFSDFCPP
T1 sequence (Q15078 whole entry, further chain): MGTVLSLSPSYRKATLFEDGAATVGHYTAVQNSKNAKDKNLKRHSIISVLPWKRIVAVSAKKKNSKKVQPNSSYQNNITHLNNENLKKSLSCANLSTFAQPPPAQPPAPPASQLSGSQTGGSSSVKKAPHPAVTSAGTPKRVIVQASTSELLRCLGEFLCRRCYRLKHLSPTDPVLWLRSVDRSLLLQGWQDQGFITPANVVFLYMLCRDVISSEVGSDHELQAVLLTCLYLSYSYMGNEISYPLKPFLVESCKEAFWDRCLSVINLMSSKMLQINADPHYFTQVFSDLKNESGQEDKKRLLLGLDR
Sequence of Mitogen-activated protein kinase 14 (Q16539 whole entry): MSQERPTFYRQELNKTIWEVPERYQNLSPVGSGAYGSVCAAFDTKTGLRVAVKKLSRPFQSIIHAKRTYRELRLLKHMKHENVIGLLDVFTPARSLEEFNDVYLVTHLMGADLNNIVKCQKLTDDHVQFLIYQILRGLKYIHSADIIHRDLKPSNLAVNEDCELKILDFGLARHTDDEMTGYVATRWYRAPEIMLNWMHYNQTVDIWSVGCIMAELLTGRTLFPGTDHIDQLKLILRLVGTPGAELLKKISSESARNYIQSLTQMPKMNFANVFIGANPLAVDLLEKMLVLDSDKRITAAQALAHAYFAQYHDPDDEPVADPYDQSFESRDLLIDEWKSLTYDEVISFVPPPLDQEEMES

The term IC50 denotes the concentration that inhibits the measured activity by half. A lower IC50 goes with higher potency. The compound `CN1CCN(c2ccc3c(c2)CN(c2csc(-c4ccncc4)n2)C(=O)N3)CC1` yielded an IC50 in assay [1] of 1160 nM.

On to `O=C1Nc2cc(Br)ccc2CN1c1csc(-c2ccncc2)n1`, for which the IC50 in assay [1] was determined as 38 nM.

In turn, `Cc1ccc2c(c1)CN(c1csc(-c3ccncc3)n1)C(=O)N2` yielded an IC50 in assay [1] of 165 nM.

The compound `CCc1cc(-c2nc(N3Cc4ccccc4NC3=O)cs2)ccn1` gave a half-inhibitory concentration (IC50) in assay [2] of 746 nM.

Compound `O=c1[nH]c2ccccc2n1-c1csc(-c2ccncc2)n1` displayed an IC50 in assay [1] of 1160 nM.

The compound `CN1CCN(c2cccc3c2CN(c2csc(-c4ccncc4)n2)C(=O)N3)CC1` displayed an IC50 in assay [1] of 829 nM.

With `O=C1Nc2ccccc2CN1c1nc(-c2ccncc2)cs1`, the IC50 in assay [1] and in assay [2] was 77 nM throughout.

Turning to `O=C1Nc2ccccc2CN1c1csc(-c2ccncc2)n1`, the IC50 was above 10 µM in assay [3]; above 10 µM in assay [4]; 79 nM in assay [1]; above 10 µM in assay [5]; 79 nM in assay [2]; above 10 µM in assay [6]. In assay [7], the IC50 is 142 nM.

The compound `O=c1[nH]c2ccccc2c(=O)n1-c1csc(-c2ccncc2)n1` gave a 50% inhibitory concentration (IC50) in assay [1] above 10000 nM.

`O=C1Nc2cc(F)ccc2CN1c1csc(-c2ccncc2)n1`: the IC50 in assay [3] is above 10 µM; in assay [4], above 10 µM; in assay [1], 16 nM; in assay [5], above 10 µM; in assay [2], 16 nM; in assay [6] it was above 10 µM. Moreover, in assay [7], 52 nM corresponded to half-maximal inhibition (IC50).

With `O=C1Nc2cc(CN3CCOCC3)ccc2CN1c1csc(-c2ccncc2)n1`, the concentration for half-maximal inhibition (IC50) was above 10 µM in assay [3]; above 10 µM in assay [4]; 62 nM in assay [1]; above 10 µM in assay [5]; 62 nM in assay [2]; above 10 µM in assay [6]. The compound further came in with a half-maximal inhibitory concentration (IC50) in assay [7] of 529 nM.

Turning to `O=C1Nc2cccc(Br)c2CN1c1csc(-c2ccncc2)n1`, in assay [1], inhibition was half-maximal at 228 nM (IC50).

For the compound `O=C1Nc2ccccc2CN1c1nc(-c2ccncc2)ns1`, it took 616 nM to reach half-maximal inhibition in assay [1] (IC50).

Turning to `O=C1Nc2ccccc2CN1c1nc(-c2ccccn2)cs1`, the concentration for half-maximal inhibition (IC50) in assay [2] came out at 7360 nM.

In assay [2], `O=C1Nc2ccccc2CN1c1nc(-c2cccnc2)cs1` registered a half-maximal inhibitory concentration (IC50) of 399 nM.

In turn, `O=C1Nc2cccc(F)c2CN1c1csc(-c2ccncc2)n1` had a 50% inhibitory concentration (IC50) in assay [1] of 240 nM.

Compound `O=C(Nc1ccccn1)Nc1csc(-c2ccncc2)n1` registered an IC50 in assay [1] of 192 nM.

In the case of `O=C1Nc2ccccc2CN1c1nc(-c2ccncc2)no1`, in assay [1], the concentration for half-maximal inhibition (IC50) is above 10000 nM.

`Cc1cccc2c1CN(c1csc(-c3ccncc3)n1)C(=O)N2` came in with an IC50 in assay [1] of 1260 nM.

Consider `CN1CCN(c2cccc(NC(=O)Nc3csc(-c4ccncc4)n3)n2)CC1`, for which the IC50 in assay [2] stood at 15 nM.

Take `O=C1Nc2cccc(CN3CCOCC3)c2CN1c1csc(-c2ccncc2)n1`: in assay [1], inhibition was half-maximal at 284 nM (IC50).

For the compound `O=C1Nc2ccccc2CN1c1ccc(-c2ccncc2)s1`, the half-inhibitory concentration (IC50) in assay [1] is above 10000 nM.

As for `O=C1Nc2cccc(Cl)c2CN1c1csc(-c2ccncc2)n1`, the concentration for half-maximal inhibition (IC50) in assay [1] was found to be 332 nM.

In turn, `O=C1Nc2cc(-c3ccccc3)ccc2CN1c1csc(-c2ccncc2)n1` displayed an IC50 in assay [1] of 113 nM.

In turn, `O=C1Nc2ccc(F)cc2CN1c1csc(-c2ccncc2)n1` had a half-inhibitory concentration (IC50) in assay [1] of 72 nM.

In the case of `COc1cccc2c1CN(c1csc(-c3ccncc3)n1)C(=O)N2`, 362 nM corresponded to half-maximal inhibition in assay [1] (IC50).

For `O=C1Nc2ccccc2CN1c1cccc(-c2ccncc2)c1`, the 50% inhibitory concentration (IC50) in assay [1] is above 10000 nM.

As for `O=C(Nc1ccccc1)Nc1csc(-c2ccncc2)n1`, the half-maximal inhibitory concentration (IC50) in assay [1] worked out at 2990 nM.
